From patent US20100298141A1, “SUBSTITUTED PYRIDINE N-OXIDE HERBICIDES” (E. I. DU PONT DE NEMOURS AND COMPANY, priority 2007, published 2010)

What was measured:
[1] = system: velvetleaf; experiment: Test A pre-/postemergence greenhouse test; type: in vivo, Abutilon theophrasti; details: for Velvetleaf plant response rating: 0 to 100 scale
Procedure, shortened: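 Test compounds in non-phytotoxic solvent with surfactant were applied as a preemergence soil spray to seeded loam/sand pots and, concurrently, postemergence to plants at 2–10 cm, one- to two-leaf stage. About ten days in greenhouse, then injury visually rated against untreated controls.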

[2] = system: blackgrass; experiment: Test C pre-/postemergence test; type: in vivo, Alopecurus myosuroides
Procedure, shortened: (§1)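 Compounds in a non-phytotoxic solvent with surfactant applied preemergence to seeded pots and, at the same time, postemergence to plants 2–18 cm tall (1- to 4-leaf stage). Paddy tests: pots flooded to 3 cm, compound applied into the water, depth held throughout.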

[3] = system: downy brome; experiment: Test C pre-/postemergence test; type: in vivo, Bromus tectorum
Procedure, shortened: as §1

[4] = system: green foxtail; experiment: Test C pre-/postemergence test; type: in vivo, Setaria viridis; details: Preemergence
Procedure, shortened: as §1

[5] = system: Italian ryegrass; experiment: Test C pre-/postemergence test; type: in vivo, Lolium multiflorum; details: Preemergence
Procedure, shortened: as §1

[6] = system: wild oat; experiment: Test C pre-/postemergence test; type: in vivo, Avena fatua; details: Preemergence
Procedure, shortened: as §1

[7] = system: catchweed bedstraw; experiment: Test C pre-/postemergence test; type: in vivo, Galium aparine; details: Preemergence
Procedure, shortened: as §1

[8] = system: cocklebur; experiment: Test C pre-/postemergence test; type: in vivo, Xanthium strumarium
Procedure, shortened: as §1

[9] = system: corn; experiment: Test C pre-/postemergence test; type: in vivo, Zea mays
Procedure, shortened: as §1

[10] = system: woolly cupgrass; experiment: Test C pre-/postemergence test; type: in vivo, Eriochloa villosa; details: Preemergence
Procedure, shortened: as §1

[11] = system: giant foxtail; experiment: Test C pre-/postemergence test; type: in vivo, Setaria faberii; details: Preemergence
Procedure, shortened: as §1

[12] = system: johnsongrass; experiment: Test C pre-/postemergence test; type: in vivo, Sorghum halepense; details: Preemergence
Procedure, shortened: as §1

[13] = system: morningglory; experiment: Test C pre-/postemergence test; type: in vivo, Ipomoea coccinea; details: Preemergence
Procedure, shortened: as §1

[14] = system: soybean; experiment: Test C pre-/postemergence test; type: in vivo, Glycine max; details: Preemergence
Procedure, shortened: as §1

[15] = system: velvetleaf; experiment: Test C pre-/postemergence test; type: in vivo, Abutilon theophrasti; details: Preemergence
Procedure, shortened: as §1

[16] = system: duck salad; experiment: Test C flooded paddy test; type: in vivo, Heteranthera limosa; details: Flood
Procedure, shortened: (§2)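 Test compounds are applied straight into paddy water held 3 cm above the soil surface, with that flood maintained for the whole test. After 13 to 15 days in the greenhouse, each species is scored visually relative to controls.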

[17] = system: barnyardgrass; experiment: Test C flooded paddy test; type: in vivo, Echinochloa crus-galli; details: Flood
Procedure, shortened: as §2

[18] = 62 g ai/ha, Preemergence, scale 0 to 100
[19] = Preemergence, 31 g ai/ha, scale 0 to 100 (0 no effect, 100 complete control)
[20] = preemergence, 125 g ai/ha, scale 0 (no effect) to 100 (complete control)
[21] = 31 g ai/ha, scale 0 to 100 (0 no effect, 100 complete control)
[22] = 62 g ai/ha, scale 0 to 100, 0 no effect, 100 complete control, 13 to 15 days
[23] = 125 g ai/ha, scale 0 to 100, 0 no effect, 100 complete control, 13 to 15 days
[24] = 250 g ai/ha, scale 0 to 100 (0 no effect, 100 complete control)

Cc1cc[n+]([O-])c(S(=O)(=O)C(Cl)c2c(C(F)(F)F)nn(C)c2Cl)c1 (racemic) [Compound 22]
Velvetleaf plant response rating ([1]; Postemergence, 125 g ai/ha, 0 is no effect, 100 is complete control): 0
Velvetleaf plant response rating ([1]; Postemergence, 500 g ai/ha, 0 is no effect, 100 is complete control): 40
Velvetleaf plant response rating ([1]; Preemergence, 125 g ai/ha, 0 no effect, 100 complete control): 10
Plant response rating, Velvetleaf ([1]; Preemergence, 500 g ai/ha, 0 to 100 scale where 0 is no effect and 100 is complete control): 60
Blackgrass plant response rating [2, 18]: 95
Plant response rating, Blackgrass [2, 19]: 55
Plant response rating (0 to 100), Blackgrass ([2]; Preemergence, 250 g ai/ha): 98
Blackgrass plant response rating [2, 20]: 95
Bromegrass, Downy plant response rating [3, 18]: 0
Plant response rating, Bromegrass, Downy [3, 19]: 0
Plant response rating (0 to 100), Bromegrass, Downy ([3]; Preemergence, 250 g ai/ha): 0
Bromegrass, Downy plant response rating [3, 20]: 0
Foxtail, Green plant response rating ([4]; 62 g ai/ha, scale 0 to 100): 100
Plant response rating, Foxtail, Green [4, 21]: 100
Plant response rating (0 to 100), Foxtail, Green ([4]; 250 g ai/ha): 100
Ryegrass, Italian plant response rating ([5]; 62 g ai/ha, scale 0 to 100): 40
Plant response rating, Ryegrass, Italian [5, 21]: 0
Oat, Wild plant response rating ([6]; 62 g ai/ha, scale 0 to 100): 45
Plant response rating, Oat, Wild [6, 21]: 0
Galium plant response rating ([7]; 62 g ai/ha, scale 0 to 100): 100
Plant response rating, Galium [7, 21]: 95
Plant response rating (0 to 100), Galium ([7]; 250 g ai/ha): 100
Cocklebur plant response rating [8, 18]: 0
Plant response rating, Cocklebur [8, 19]: 0
Plant response rating (0 to 100), Cocklebur ([8]; Preemergence, 250 g ai/ha): 0
Cocklebur plant response rating [8, 20]: 0
Corn plant response rating [9, 18]: 20
Plant response rating, Corn [9, 19]: 0
Plant response rating (0 to 100), Corn ([9]; Preemergence, 250 g ai/ha): 100
Corn plant response rating [9, 20]: 30
Cupgrass, Woolly plant response rating ([10]; 62 g ai/ha, scale 0 to 100): 100
Plant response rating, Cupgrass, Woolly [10, 21]: 60
Foxtail, Giant plant response rating ([11]; 62 g ai/ha, scale 0 to 100): 80
Plant response rating, Foxtail, Giant [11, 21]: 80
Plant response rating (0 to 100), Foxtail, Giant ([11]; 250 g ai/ha): 100
Johnsongrass plant response rating ([12]; 62 g ai/ha, scale 0 to 100): 10
Plant response rating (0 to 100), Johnsongrass ([12]; 250 g ai/ha): 70
Morningglory plant response rating ([13]; 62 g ai/ha, scale 0 to 100): 0
Plant response rating, Morningglory [13, 21]: 0
Soybean plant response rating ([14]; 62 g ai/ha, scale 0 to 100): 0
Plant response rating, Soybean [14, 21]: 0
Velvetleaf plant response rating ([15]; 62 g ai/ha, scale 0 to 100): 0
Plant response rating, Velvetleaf [15, 21]: 0
Plant response rating, Ducksalad [16, 21]: 20
Plant response rating, Ducksalad [16, 22]: 80
Plant response rating, Ducksalad [16, 23]: 85
Plant response rating, Ducksalad [16, 24]: 90
Plant response rating, Barnyardgrass [17, 21]: 10
Plant response rating, Barnyardgrass [17, 22]: 20
Plant response rating, Barnyardgrass [17, 23]: 80
Plant response rating, Barnyardgrass [17, 24]: 85
